Where two headings read alike, the source gives them in different places.

The values below come from patent publication US20080004290A1, “Anti-Cancer Agents” (THE UNIVERSITY OF QUEENSLAND, priority 2003, published 2008).

One data set deals with p21^WAF1/Cip1 (CDKN1A). The data set can be described thus: Induction of p21 expression (semi-quantitative RT-PCR) in MM96L cells. To be noted: MM96L melanoma cells, 10 μg/ml, after 16 hrs treatment. It counts as cell-based, human. From the text: Induction of p21 Expression. It has been postulated that histone acetylation is associated with activation of gene transcription. […] Possibly the best characterised gene to be induced following exposure to different HDAC inhibitors is that of the cyclin-dependent kinase inhibitor p21^WAF1/Cip1, which blocks cyclin-dependent kinase activity thereby causing cell-cycle arrest in G1. HDAC inhibitors are thought to act directly on the CDKN1A promoter rather than an upstream target. The HDAC inhibitor SAHA induces accumulation of acetylated histones in the chromatin associated with the CDKN1A gene, and this correlates with the observed increase in transcription. […]
Cell Treatment and Total RNA Isolation. […] RNA was analysed for sufficient quality by formamide agarose gel electrophoresis, and quantified by spectrophotometry.
p21 Expression. The semi-quantitative analysis of mRNA expression of p21^WAF1/Cip1 was carried out by RT-PCR. […] Products were analysed by agarose gel electrophoresis, and visualised on a UV light box. Product intensity was determined to increase linearly with number of cycles and amount of mRNA used, by densitometric analysis using ImageQuaNT 4.2 software (Molecular Dynamics, Sunnyvale, Calif.). Quantitation of p21^WAF1/Cip1 induction was also performed by densitometric analysis using ImageQuaNT 4.2 software following normalisation to GAPDH product intensity.

Another data set concerns SkMel28 melanoma cells. The data set can be described thus: Cell survival assay (SRB). Type of data set: cell-based, human. To be noted: Table 10, standard deviations in parentheses, read-out: Cell line IC50 (μM) SkMel. An outline of the steps: (§1)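 Cells in RPMI 1640 with 10% FCS at 37 °C, 5% CO2, seeded at 5×10^3 cells/well and adhered overnight. Compound exposure for 24 h, then washout and 72 h further growth in fresh medium. Survival read by SRB staining of ethanol-fixed cells, absorbance at 564 nm.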

In data set [1] the test system is CI-80-13S ovarian cancer cells. The data set can be described thus: Cell survival assay (SRB). It counts as cell-based, human. To be noted: Table 10, standard deviations in parentheses, read-out: Cell line IC50 (μM) C18013S. An outline of the steps:
as §1

Another data set deals with DO4 melanoma cells. The data set can be described thus: Cell survival assay (SRB). It counts as cell-based, human. To be noted: Table 10, standard deviations in parentheses, read-out: Cell line IC50 (μM) DO4. Summed up: as §1
A further data set relates to JAM ovarian cancer cells. The data set can be described thus: Cell survival assay (SRB). Type of data set: cell-based, human. To be noted: Table 10, standard deviations in parentheses, read-out: Cell line IC50 (μM) JAM. Summed up:
as §1

For data set [2], the system named is DU145 prostate cancer cells. The data set can be described thus: Cell survival assay (SRB). It counts as cell-based, human. To be noted: Table 10, standard deviations in parentheses, read-out: Cell line IC50 (μM) DU145. An outline of the steps: as §1
The subject of data set [3] is MCF-7 breast cancer cells. The data set can be described thus: Cell survival assay (SRB). It counts as cell-based, human. To be noted: Table 10, standard deviations in parentheses, read-out: Cell line IC50 (μM) MCF7. An outline of the steps:
as §1

Data set [4] is described as follows: Oral bioavailability, plasma concentration after oral and intravenous administration. Type of data set: in vivo, Wistar rats. To be noted: 5 mg/kg in 4:1 olive oil:DMSO, three rats starved prior to dosing. As to the method: FIG. 7. Oral Bioavailability. Time dependent plasma concentration of compound of example 24 after oral (top) and intravenous (bottom) administration at 5 mg/kg to each of three Wistar rats.
Compounds of the invention were examined to see whether this new series had the expected favorable properties for oral delivery. […] Compound 24 (Log D7.0 2.7) was administered intravenously and orally to rats. […] Neither vehicle nor fasting had any significant effects on these parameters.

The test system of a further data set is MM96L melanoma cells. The data set can be described thus: Cell survival assay (clonogenic survival, SRB). It counts as cell-based, human. An outline of the steps: (§2)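 Cells (5×10^3/well, RPMI 1640 with 10% FCS) treated 24 h with compound at 0.01-10 μg/mL, then washed and grown 72 h drug-free at 37 °C, 5% CO2. Survival read by SRB staining after methylated-spirit fixation, absorbance 564 nm.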

The subject of data set [5] is NFF, neonatal foreskin fibroblasts. The data set can be described thus: Cell survival assay (clonogenic survival, SRB), normal cells. It counts as cell-based, human. Summed up: as §2

For `O=C(CCCSC[C@H](NC(=O)c1ccc(Br)cc1)C(=O)NCc1ccccc1)NO` [Example 24], the “Induction of mRNA for p21^WAF1/Cip1” value in the data set on p21^WAF1/Cip1 (CDKN1A) was “Induction of mRNA for p21^WAF1/Cip1 was seen”. For the same molecule, the IC50 was determined as 5.7 µM with SkMel28 melanoma cells; 1.5 µM in data set [1]; 3.5 µM in the data set on DO4 melanoma cells; 2 µM in the data set on JAM ovarian cancer cells; 3.8 µM in data set [2]; 1.16 µM in data set [3]. Further, the IC50 was determined as 0.2 µM in the data set with MM96L melanoma cells (Table 10, standard deviations in parentheses, read-out: Cell line IC50 (μM) MM96L) and 0.83 µM in data set [5] (Table 10, standard deviations in parentheses, read-out: Cell line IC50 (μM) NFF). Besides, the Tmax in [4] is on record as approximately 15 min. Besides, in [4], the “time for which high serum levels of drug were maintained” value is more than 4 h. In [4] (serum, preliminary study), the Cmax was approximately 6000 ng/mL.
For the molecule `CN(C)c1ccc(C(=O)N[C@@H](CSCCCC(=O)NO)C(=O)NC2CCCc3ccccc32)cc1` (stereo partly shown) [Example 67], the “Induction of mRNA for p21^WAF1/Cip1” value with p21^WAF1/Cip1 (CDKN1A) is “Induction of mRNA for p21^WAF1/Cip1 was seen”. In addition, the IC50 in the data set with SkMel28 melanoma cells (Homo sapiens, SK-MEL-28) came out at 2.59 µM; in data set [1] (Homo sapiens, C180-13S), 1.24 µM; in the data set with DO4 melanoma cells (Homo sapiens, DO4) it was 2.73 µM; in the data set on JAM ovarian cancer cells (Homo sapiens), 1.47 µM; in data set [2] (Homo sapiens, DU-145), 1.06 µM; in data set [3] (Homo sapiens, MCF7), 0.96 µM. Besides, the IC50 with MM96L melanoma cells (Homo sapiens, MM96L, 24 h, Table 6, 24 hours with compound, further growth, SRB, read-out: IC50 (μM) MM96L) was 0.2 ± 0.1 µM; in the data set with MM96L melanoma cells (Homo sapiens, MM96L, Table 10, standard deviations in parentheses, read-out: Cell line IC50 (μM) MM96L), 0.2 µM; in the data set with MM96L melanoma cells (Homo sapiens, MM96L, most preferred compounds, exemplary examples, read-out: potency of IC50 against the MM96 melanoma cells), not above 0.5 µM; in data set [5] (Homo sapiens, Fibroblast, 24 h, Table 6, 24 hours with compound, further growth, SRB, read-out: IC50 (μM) NFF), 2.2 ± 0.2 µM; in [5] (Homo sapiens, Fibroblast, Table 10, standard deviations in parentheses, read-out: Cell line IC50 (μM) NFF) it was 2.2 µM. For the same molecule, the Selectivity with MM96L melanoma cells (Table 6, IC50 (NFF)/IC50 (MM96L)) was found to be 11.
